Measured values: PubChem BioAssay AID330 (DTP/NCI, 2004)
Where “and” joins values, the source holds several entries; their conditions need not be identical. Identical values can stand only once. Toxic doses and inconclusive results are not listed.

System: P388 leukemia ip, CD2F1 mice, survival T/C
Test: NCI In Vivo Anticancer Drug Screen. Data for tumor model P388 Leukemia (intraperitoneal) in CD2F1 (CDF1) mice
Settings: endpoint: median survival time, higher = longer survival
In short: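 Mice carrying the transplanted tumor received test compound or vehicle. Survival was recorded in each group, and the value is the treated-group measurement divided by that of the vehicle-treated control group.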

[1] = dose: 50.0 mg/kg/injection, schedule: Q01DX009 (ip), vehicle: water
[2] = dose: 100.0 mg/kg/injection, schedule: Q01DX009 (ip), vehicle: water
[3] = dose: 200.0 mg/kg/injection, schedule: Q01DX009 (ip), vehicle: water
[4] = dose: 25.0 mg/kg/injection, schedule: Q04DX003 (ip), vehicle: saline with Tween-80
[5] = dose: 50.0 mg/kg/injection, schedule: Q04DX003 (ip), vehicle: saline with Tween-80
[6] = dose: 100.0 mg/kg/injection, schedule: Q04DX003 (ip), vehicle: saline with Tween-80
[7] = dose: 50.0 mg/kg/injection, schedule: Q01DX009 (ip), vehicle: saline with Tween-80
[8] = dose: 100.0 mg/kg/injection, schedule: Q01DX009 (ip), vehicle: saline with Tween-80
[9] = dose: 200.0 mg/kg/injection, schedule: Q01DX009 (ip), vehicle: saline with Tween-80
[10] = dose: 12.5 mg/kg/injection, schedule: Q01DX009 (ip), vehicle: saline with Tween-80
[11] = dose: 25.0 mg/kg/injection, schedule: Q01DX009 (ip), vehicle: saline with Tween-80
[12] = dose: 60.0 mg/kg/injection, schedule: Q01DX005 (ip), vehicle: saline with Tween-80
[13] = dose: 120.0 mg/kg/injection, schedule: Q01DX005 (ip), vehicle: saline with Tween-80
[14] = dose: 240.0 mg/kg/injection, schedule: Q01DX005 (ip), vehicle: saline with Tween-80
[15] = dose: 50.0 mg/kg/injection, schedule: Q01DX005 (ip), vehicle: saline
[16] = dose: 100.0 mg/kg/injection, schedule: Q01DX005 (ip), vehicle: saline
[17] = dose: 200.0 mg/kg/injection, schedule: Q01DX005 (ip), vehicle: saline
[18] = dose: 50.0 mg/kg/injection, schedule: Q01DX005 (ip), vehicle: saline with Tween-80
[19] = dose: 100.0 mg/kg/injection, schedule: Q01DX005 (ip), vehicle: saline with Tween-80
[20] = dose: 200.0 mg/kg/injection, schedule: Q01DX005 (ip), vehicle: saline with Tween-80

O=C(N/N=C/c1cccc(O)c1)C(=O)N/N=C/c1cccc(O)c1
T/C [1]: 101 % of control
T/C [2]: 100 % of control
T/C [3]: 102 % of control

CN1C(=O)/C(=c2\sc3nc4ccccc4n3c2=O)c2cc(Br)ccc21
T/C (dose: 100.0 mg/kg/injection, schedule: Q01DX001 (ip), vehicle: Klucel (hydroxypropylcellulose) (HPC)): 99 % of control
T/C (dose: 200.0 mg/kg/injection, schedule: Q01DX001 (ip), vehicle: Klucel (hydroxypropylcellulose) (HPC)): 99 % of control
T/C (dose: 400.0 mg/kg/injection, schedule: Q01DX001 (ip), vehicle: Klucel (hydroxypropylcellulose) (HPC)): 101 % of control

NC(=O)c1ccccc1NCCc1ccccc1
T/C [4]: 91 % of control
T/C [5]: 100 % of control
T/C [6]: 104 % of control and 97 % of control
T/C (dose: 400.0 mg/kg/injection, schedule: Q04DX003 (ip), vehicle: saline with Tween-80): 97 % of control

CNc1ccccc1C(=O)NNC(=O)Nc1ccc(SC)cc1
T/C [7]: 103 % of control
T/C [8]: 97 % of control
T/C [9]: 100 % of control

CCON(C=Nc1ccc(Cl)c(Cl)c1)c1ccc(Cl)c(Cl)c1
T/C (dose: 50.0 mg/kg/injection, schedule: Q01DX009 (ip), vehicle: saline): 103 % of control
T/C (dose: 100.0 mg/kg/injection, schedule: Q01DX009 (ip), vehicle: saline): 102 % of control
T/C (dose: 200.0 mg/kg/injection, schedule: Q01DX009 (ip), vehicle: saline): 91 % of control

CN=C(NC(C)C)c1ccc(NC(=O)c2ccc(C(=O)Nc3ccc(C(=NC)NC(C)C)cc3)cc2)cc1
T/C (dose: 32.0 mg/kg/injection, schedule: Q01DX009 (ip), vehicle: saline): 122 % of control
T/C (dose: 64.0 mg/kg/injection, schedule: Q01DX009 (ip), vehicle: saline): 109 % of control
T/C (dose: 96.0 mg/kg/injection, schedule: Q04DX003 (ip), vehicle: saline with Tween-80): 154 % of control

COc1ccc(C2CC(=O)N(CN3CCN(c4ccccc4)CC3)C(=O)C2)cc1
T/C [10]: 98 % of control
T/C [11]: 93 % of control
T/C [7]: 87 % of control and 92 % of control

O=C1c2ccccc2C(=O)c2c1ccc1nc(Cl)c(=O)[nH]c21
T/C [12]: 94 % of control
T/C [13]: 97 % of control
T/C [14]: 94 % of control

CC1OC(C)(c2ccc(Cl)c(O)c2)OC1C (stereo not given)
T/C [12]: 100 % of control
T/C [13]: 102 % of control
T/C [14]: 102 % of control

Oc1cc2c(ccc3ccccc32)c2c1CCC2
T/C (dose: 6.25 mg/kg/injection, schedule: Q01DX001 (ip), vehicle: Klucel (hydroxypropylcellulose) (HPC)): 106 % of control
T/C (dose: 12.5 mg/kg/injection, schedule: Q01DX001 (ip), vehicle: Klucel (hydroxypropylcellulose) (HPC)): 104 % of control
T/C (dose: 25.0 mg/kg/injection, schedule: Q01DX001 (ip), vehicle: Klucel (hydroxypropylcellulose) (HPC)): 119 % of control

CCCCCCC(=O)/C=C/c1cccc(OCc2cccc(Cl)c2)c1
T/C (dose: 50.0 mg/kg/injection, schedule: Q01DX005 (ip), vehicle: saline + Tween-80 + alcohol): 96 % of control
T/C (dose: 100.0 mg/kg/injection, schedule: Q01DX005 (ip), vehicle: saline + Tween-80 + alcohol): 91 % of control
T/C (dose: 200.0 mg/kg/injection, schedule: Q01DX005 (ip), vehicle: saline + Tween-80 + alcohol): 96 % of control

C[n+]1cccc(C(N)=O)c1
T/C (dose: 25.0 mg/kg/injection, schedule: Q01DX009 (ip), vehicle: water): 102 % of control
T/C [1]: 112 % of control
T/C [2]: 112 % of control
T/C [3]: 110 % of control
T/C (dose: 400.0 mg/kg/injection, schedule: Q01DX009 (ip), vehicle: water): 100 % of control

[CH3][Ge]1([CH3])[CH]=CC(O)[CH2]1 (stereo not given)
T/C [15]: 98 % of control
T/C [16]: 100 % of control
T/C [17]: 100 % of control

C#C/C=C/CC1OC(C(Br)CC)CC(OC(C)=O)C(Cl)CC1Cl (stereo not given)
T/C (dose: 3.75 mg/kg/injection, schedule: Q01DX005 (ip), vehicle: Klucel (hydroxypropylcellulose) (HPC)): 97 % of control
T/C (dose: 7.5 mg/kg/injection, schedule: Q01DX005 (ip), vehicle: Klucel (hydroxypropylcellulose) (HPC)): 120 % of control
T/C (dose: 15.0 mg/kg/injection, schedule: Q01DX005 (ip), vehicle: Klucel (hydroxypropylcellulose) (HPC)): 100 % of control
T/C (dose: 30.0 mg/kg/injection, schedule: Q01DX005 (ip), vehicle: Klucel (hydroxypropylcellulose) (HPC)): 98 % of control

N#CC1(C#N)OC1(C#N)c1ccccc1 (stereo not given)
T/C (dose: 3.0 mg/kg/injection, schedule: Q01DX009 (ip), vehicle: saline with Tween-80): 100 % of control
T/C (dose: 6.0 mg/kg/injection, schedule: Q01DX009 (ip), vehicle: saline with Tween-80): 100 % of control
T/C (dose: 12.0 mg/kg/injection, schedule: Q01DX009 (ip), vehicle: saline with Tween-80): 100 % of control

Clc1ccc(CSSCc2ccc(Cl)cc2)cc1
T/C (dose: 12.5 mg/kg/injection, schedule: Q04DX003 (ip), vehicle: saline with Tween-80): 100 % of control
T/C [4]: 100 % of control
T/C [5]: 100 % of control
T/C [6]: 107 % of control

c1ccc(N/N=C2/CCN3CCCc4cccc2c43)cc1
T/C (dose: 12.5 mg/kg/injection, schedule: Q04DX003 (ip), vehicle: DMSO): 100 % of control
T/C (dose: 25.0 mg/kg/injection, schedule: Q04DX003 (ip), vehicle: DMSO): 101 % of control
T/C (dose: 50.0 mg/kg/injection, schedule: Q04DX003 (ip), vehicle: DMSO): 110 % of control

C#CCn1c2c(c3ccccc3c1=O)C(=O)c1ccccc1-2
T/C [18]: 88 % of control
T/C [19]: 88 % of control
T/C [20]: 101 % of control

CNC(=O)OCc1c(COC(=O)NC)c2n(c1C)-c1ccccc1CCC2
T/C (dose: 2.5 mg/kg/injection, schedule: Q01DX005 (ip), vehicle: Klucel (hydroxypropylcellulose) (HPC)): 154 % of control
T/C (dose: 10.0 mg/kg/injection, schedule: Q01DX005 (ip), vehicle: Klucel (hydroxypropylcellulose) (HPC)): 152 % of control

CCOC(=O)Nc1cc2c(c(N)n1)N=C(c1ccc(Cl)c(Cl)c1)CN2
T/C (dose: 5.0 mg/kg/injection, schedule: Q01DX005 (ip), vehicle: saline with Tween-80): 121 % of control
T/C (dose: 10.0 mg/kg/injection, schedule: Q01DX005 (ip), vehicle: saline with Tween-80): 158 % of control

CC(C)=CCC1=C(OC2OC(CO)C(O)C(O)C2O)C(=O)c2ccccc2C1=O (stereo not given)
T/C (dose: 6.25 mg/kg/injection, schedule: Q01DX009 (ip), vehicle: saline with Tween-80): 121 % of control
T/C [10]: 118 % of control
T/C [11]: 114 % of control

CN(C)c1ccc(C2(c3ccc(N(C)C)cc3)NNC(=O)c3ccccc32)cc1
T/C [18]: 93 % of control
T/C [19]: 90 % of control
T/C [20]: 86 % of control

CN(C)NP(=O)(NN(C)C)Oc1ccccc1
T/C [15]: 97 % of control
T/C [16]: 99 % of control
T/C [17]: 103 % of control

COC1/C=C/OC2(C)Oc3c(C)c(O)c4c(O)c(c(/C=N/N5C(C)CN(Cc6cccc(O)c6)CC5C)c(O)c4c3C2=O)NC(=O)/C(C)=C\C=C\C(C)C(O)C(C)C(O)C(C)C(OC(C)=O)C1C (stereo not given)
T/C [7]: 102 % of control
T/C [8]: 100 % of control
T/C [9]: 118 % of control

N#C[C@H]1O[C@H]1c1ccc[n+]([O-])c1
T/C (dose: 12.5 mg/kg/injection, schedule: Q01DX005 (ip), vehicle: saline): 107 % of control
T/C (dose: 25.0 mg/kg/injection, schedule: Q01DX005 (ip), vehicle: saline): 102 % of control
T/C [15]: 103 % of control and 115 % of control

Cc1ccc(NNC2=NC(=S)NC(=O)C2)cc1
T/C [7]: 111 % of control
T/C [8]: 95 % of control
T/C [9]: 104 % of control

COc1cc(C=C2C(=O)C=CC2=O)ccc1OCc1ccccc1
T/C (dose: 2.5 mg/kg/injection, schedule: Q04DX002 (ip), vehicle: saline with Tween-80): 102 % of control
T/C (dose: 5.0 mg/kg/injection, schedule: Q04DX002 (ip), vehicle: saline with Tween-80): 113 % of control
T/C (dose: 10.0 mg/kg/injection, schedule: Q04DX002 (ip), vehicle: saline with Tween-80): 107 % of control
T/C (dose: 25.0 mg/kg/injection, schedule: Q04DX002 (ip), vehicle: saline with Tween-80): 111 % of control
